Test results reported in paper PMC1838525 (Protein science : a publication of the Protein Society, 2006).

Biological target: T1, Vam7p PX domain (Saccharomyces cerevisiae, UniProt P32912)
T1 sequence (P32912 2-122): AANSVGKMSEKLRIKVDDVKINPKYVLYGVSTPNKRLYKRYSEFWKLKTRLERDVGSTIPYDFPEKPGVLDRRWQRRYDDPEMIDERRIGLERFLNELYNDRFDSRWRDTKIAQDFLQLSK
Experiment: 1H, […] HSQC NMR titration
Format: binding

Kd: 299 ± 26 µM
SMILES: CCCC(=O)OC[C@H](COP(=O)(O)O[C@@H]1[C@H](O)[C@H](OP(=O)(O)O)[C@@H](O)[C@H](O)[C@H]1O)OC(=O)CCC [C4-PtdIns(3)P]
